# Data: patent US5128369A, “Arylalkylamine derivatives” (Kyowa Hakko Kogyo Co., Ltd., priority 1989, dated 1992)
# How the values were obtained:
# [1] = system: PCA reaction; experiment: 48 hour-homologous passive cutaneous anaphylaxis (PCA) test in rats (antiallergic effects); assay type: in vivo, rat (male Wistar); design: key to Anti-PCA MED (minimum effective dosage): NE: no effect; settings: rat, oral, 1 hour before PCA challenge, inhibition 50% or higher in at least one of three animals; for minimal effective dose: read-out: Anti-PCA MED (minimum effective dosage)
# Procedure: Antiallergic effects: Antiallergic effects of compounds were studied by passive cutaneous anaphylaxis (PCA) test in rats. Male Wistar rats weighing 180 to 220 g were used for collection of antiserum and Male Wistar rats weighing 120 to 140 g for PCA test. (A) Preparation of anti-EWA serum in rat Anti-EWA rat serum was prepared by the method of Stotland, et al [Can. J. Physiol. Pharmacol., 52, 1114, (1974)] as follows. That is, 1 mg of EWA, 20 mg of aluminium hydroxide gel and 0.5 ml of mixed vaccine of pertussis, diphtheria and tetanus were mixed, and the mixture was subcutaneously injected in four foodpads of rats. After 14 days, the blood of sensitized rats was collected from the carotid artery. The serum was separated by centrifugation from collected blood, and stored at -80° C. The 48 hour homologous PCA titer of the serum was 1 :64. (B) Effects on 48 hour-homologous PCA tests in rats Three rats in each group were passively sensitized with 8 hold diluted anti-EWA serum (0.05 ml) intradermally injected in two sites of shaved dosal area of rats. After 47 hours, the test compound or its solvent (saline or CMC solution) was orally administrated, and 1 hour thereafter, PCA reaction was induced by intravenous administration of 1% Evan's blue in saline (0.5 ml/100 g) containing 2 mg of EWA. After 30 minutes, animals were sacrificed by bleeding and dorsal skin was stripped to determine the leakage of dye at blue spots, by the method of Katayama et al. [Microbiol. Immunol., 22, 89 (1978)]. The blue-dyed spots were dissected and placed in a test tube containing 1 ml of 1N sodium hydroxide and incubated at 37° C. for 48 hours. Then, 9 ml of a mixture of 0.6N phosphate:acetone (5:13) was added thereto. After shaking, the mixture was centrifuged at 2500 rpm for 10 minutes. A supernatant was separated, and extravasated dye in the supernatant was determined photometrically at 620 nm. Inhibition percent was calculated as follows: [formula]
# [2] = system: dd-mice; experiment: Acute toxicity (minimum lethal dose); assay type: in vivo; settings: male dd-mice, mortality for seven days
# Procedure: The compounds were orally administrated (po) or intraperitoneally administrated (ip) to three male dd-mice weighing 20±1 g. Minimum lethal dose (MLD) was determined by observing the mortality for seven days after the administration.
# [3] = system: tracheae (zig-zag strips from passively sensitized guinea pigs); experiment: passive Schultz-Dale reaction (bronchodilatory effects), relaxation of antigen-contracted tracheal strips; design: species or system guinea pig (male Hartley); settings: Cavia porcellus; EWA (1 μg/ml)-induced contraction, guinea pig trachea, 37° C., cumulative addition; read-out: Bronchodilatory effect IC50 (concentration to produce 50% relaxation)
# Procedure: Effects on passive Schultz-Dale reaction (bronchodilatory effects)
# After 24 hours, the guinea pigs were stunned and exsanguinated, and then tracheae were removed. The zig-zag strips of the tracheae were prepared by the method of Emmerson, et al. [J. Pharm. […] After the contraction reached stable plateau, the compounds were cumulatively added in order to get concentration-relaxation curves.
SMILES,minimal effective dose [1] [mg/kg],Acute Toxicity MLD ip (minimum lethal dose) [2] [mg/kg],Acute Toxicity MLD po (minimum lethal dose) [2] [mg/kg],IC50 [3] [µM],Anti-PCA MED (minimum effective dosage) [1]
"CC(CC1OCCc2ccccc21)NCC(O)c1ccc(O)cc1 (centres unmarked) [Compound 1, 1-(4-Hydroxyphenyl)-2-[2-(isochroman-1-yl)-1-methylethylamino]ethanol]",10,> 100,> 300,0.0128,
"CC(CC1OCCc2ccccc21)NC[C@H](O)c1ccc(O)cc1 (some centres unmarked) [Compound 2, (IR)-1-(4-hydroxyphenyl)-2-[2-(isochroman-1-yl)-1-methylethylamino]ethanol]",10,> 100,> 300,0.000612,
"CC(CC1OCCc2ccccc21)NC[C@@H](O)c1ccc(O)cc1 (stereo partly drawn) [Compound 3, (1S)-1-(4-hydroxyphenyl)-2-[2-(isochroman-1-yl)-1-methylethylamine]ethanol]",,,,0.00276,NE
"CC(CC1OCCc2ccccc21)NCC(O)c1ccccc1 (centres unmarked) [Compound 4, 2-[2-(Isochroman-1-yl)-1-methylethylamino]-1-phenylethanol]",10,100,200,0.26,
"CC(CC1OCCc2ccccc21)NC[C@H](O)c1ccccc1 (stereo partly drawn) [Compound 5, (1R)-2-[2-(Isochroman-1-yl)-1-methylethylamino]-1-phenylethanol]",1,25,200,0.019,
"CC(CC1OCCc2ccccc21)NC[C@@H](O)c1ccccc1 (stereo partly drawn) [Compound 6, (1S)-2-[2-(Isochroman-1-yl)-1-methylethylamino]-1-phenylethanol]",,> 100,200,12,NE
"CC(CC1OCCc2ccccc21)NCC(O)c1cccc(O)c1 (centres unmarked) [Compound 7, 1-(3-Hydroxyphenyl)-2-[2-(isochroman-1-yl)-1-methylethylamino]ethanol]",10,100,300,0.011,
"CC(CC1OCCc2ccccc21)NCC(O)c1ccccc1O (centres unmarked) [Compound 8, 1-(2-Hydroxyphenyl)-2-[2-(isochroman-1-yl)-1-methylethylamino]ethanol]",,100,200,0.053,NE
"CC(CC1OCCc2ccccc21)NCC(O)c1cc(O)cc(O)c1 (centres unmarked) [Compound 9, 1-(3,5-Dihydroxyphenyl)-2-[2-(isochroman-1-yl)-1-methylethylamino]ethanol]",,,200,0.00118,
"COc1ccc(C(O)CNC(C)CC2OCCc3ccccc32)cc1 (centres unmarked) [Compound 10, 2-[2-(Isochroman-1-yl)-1-methylethylamino]-1-(4-methoxyphenyl)ethanol]",10,100,200,0.081,
"CC(CC1OCCc2ccccc21)NCC(O)c1ccc(F)cc1 (centres unmarked) [Compound 16, 1-(4-Fluorophenyl)-2-[2-(isochroman-1-yl)-1-methylethylamino]ethanol]",,> 100,300,0.0614,NE
"CC(CC1OCCc2ccccc21)NCC(O)c1ccc(Cl)cc1 (centres unmarked) [Compound 17, 1-(4-Chlorophenyl)-2-[2-(isochroman-1-yl)-1-methylethylamino]ethanol]",1,100,100,3.4,
"CC(CC1OCCc2ccccc21)NCC(O)c1cccs1 (centres unmarked) [Compound 20, 2-[2-(Isochroman-1-yl)-1-methylethylamino]-1-thienylethanol]",,> 100,> 300,0.0361,NE
"Oc1ccc(C(O)CNCCC2OCCc3ccccc32)cc1 (centres unmarked) [Compound 23, 1-(4-Hydroxyphenyl)-2-[2-(isochroman-1-yl)ethylamino]ethanol]",,,,0.00876,
"CC(CC1OCCc2ccccc21)NC(C)C(O)c1ccc(O)cc1 (centres unmarked) [Compound 24, 1-(4-Hydroxyphenyl)-2-[2-(isochroman-1-yl)-1-methylethylamino]-1-propanol]",,> 100,> 300,1.6,NE
"COC(CNC(C)CC1OCCc2ccccc21)c1ccc(O)cc1 (centres unmarked) [Compound 25, 2-(4-Hydroxyphenyl)-N-[2-(isochroman-1-yl)-1-methylethylamino]-2-methoxyethylamine]",,,,0.0024,NE
"CC(CC1OCCc2ccccc21)NCC(O)Cc1ccccc1 (centres unmarked) [Compound 26, 1-[2-(Isochroman-1-yl)-1-methylethylamino]-3-phenyl-2-propanol]",,,,9.04,NE
"CC(CC1CCCc2ccccc21)NCC(O)c1ccc(O)cc1 (centres unmarked) [Compound 30, 1-(4-Hydroxyphenyl)-2-[2-(1,2,3,4-tetrahydro-1-naphthyl)-1-methylethylamino]ethanol]",10,> 100,> 300,0.00195,
"CC(CC1c2ccccc2CCN1C)NCC(O)c1ccc(O)cc1 (centres unmarked) [Compound 31, 1-(4-Hydroxyphenyl)-2-[1-methyl-2-(2-methyl-1,2,3,4-tetrahydroisoquinolin-1-yl)ethylamino]ethanol]",,> 100,> 300,0.085,NE
